This passage reports MIC results from ChEMBL document CHEMBL3797195, “Bacterial lipid membranes as promising targets to fight antimicrobial resistance, molecular foundations and illustration through the renewal of aminoglycoside antibiotics and emergence of amphiphilic aminoglycosides” (2016).

≈ marks a conversion by molar mass, not a printed value. Bounds are passed on as bounds.

Common to all, as to format: functional
Experiment [1] relates to Pseudomonas aeruginosa. In words: Antibacterial activity against clinical colistin-resistant Pseudomonas aeruginosa by microdilution method.
For experiment [2], the system named is Staphylococcus aureus. In words: Antibacterial activity against methicillin-resistant Staphylococcus aureus after 24 hrs by MTT assay.
The subject of experiment [3] is Escherichia coli. In words: Antibacterial activity against Escherichia coli ATCC 25922 after 24 hrs by MTT assay. The conditions noted are these: ATCC 25922, 24 h.
Another experiment has as its system Klebsiella pneumoniae. In words: Antibacterial activity against Klebsiella pneumoniae after 12 to 18 hrs by MTT assay.
In experiment [4] the test system is Pseudomonas aeruginosa. In words: Antibacterial activity against Pseudomonas aeruginosa after 12 to 18 hrs by MTT assay.
The test system of experiment [5] is Escherichia coli. In words: Antibacterial activity against Escherichia coli ATCC 25922 after 12 to 18 hrs by two fold dilution method.
Experiment [6] relates to Staphylococcus aureus. In words: Antibacterial activity against Staphylococcus aureus ATCC 25923 after 12 to 18 hrs by two fold dilution method.

As to `NC[C@H]1O[C@H](O[C@H]2[C@H](O)[C@@H](OCCCc3ccc4ccccc4c3)[C@H](N)C[C@@H]2N)[C@H](N)[C@@H](OCCCc2ccc3ccccc3c2)[C@@H]1O`, in the experiment on Pseudomonas aeruginosa [1], the MIC was 2 µg/mL (≈ 3.04 µM).
The same measure, in the same setting: with `NC[C@H]1O[C@H](O[C@H]2[C@H](O)[C@@H](OCCCCc3ccc4ccccc4c3)[C@H](N)C[C@@H]2N)[C@H](N)[C@@H](OCCCCc2ccc3ccccc3c2)[C@@H]1O` the figure was 2 µg/mL (≈ 2.91 µM).
For `CCCCCCCO[C@@H]1[C@@H](OCCCCCCC)[C@H](N)C[C@H](N)[C@H]1O[C@H]1O[C@H](CN)[C@@H](OCCCCCCC)C[C@H]1N`, the MIC against Staphylococcus aureus [2] is 1 µg/mL (≈ 1.66 µM); against Escherichia coli [3] it was 4 µg/mL (≈ 6.66 µM); with Klebsiella pneumoniae it was 4 µg/mL (≈ 6.66 µM); against Pseudomonas aeruginosa [4], 4 µg/mL (≈ 6.66 µM).
In the experiment with Pseudomonas aeruginosa [1], `NC[C@H]1O[C@H](O[C@H]2[C@H](O)[C@@H](OCCCCCCCCCc3ccc4ccccc4c3)[C@H](N)C[C@@H]2N)[C@H](N)[C@@H](OCCCCCCCCCc2ccc3ccccc3c2)[C@@H]1O` yielded an MIC of 2 µg/mL (≈ 2.42 µM).
Take `CCCCCCCCO[C@H]1[C@@H](O[C@@H]2[C@@H](O)[C@H](O[C@H]3O[C@H](CN)[C@@H](O)[C@H](O)[C@H]3N)[C@@H](N)C[C@H]2N)O[C@H](CO)[C@@H](O)[C@@H]1O`: the MIC against Escherichia coli [5] and in the experiment on Staphylococcus aureus [6] was above 32 µg/mL in each case.
Regarding `CCCCCCCCO[C@@H]1[C@@H](O)[C@@H](O[C@@H]2[C@@H](O)[C@H](O[C@H]3O[C@H](CN)[C@@H](O)[C@H](O)[C@H]3N)[C@@H](N)C[C@H]2N)O[C@H](CO)[C@H]1O`, the minimum inhibitory concentration (MIC) with Escherichia coli [5] and against Staphylococcus aureus [6] was above 32 µg/mL each time.
For the compound `CCCCCCCCO[C@@H]1[C@@H](O)[C@H](O)[C@H](O[C@H]2[C@H](O)[C@@H](O[C@@H]3O[C@@H](CN)[C@H](O)[C@@H](O)[C@@H]3N)[C@H](N)C[C@@H]2N)O[C@H]1CO` (single isomer, unassigned), the minimum inhibitory concentration (MIC) against Escherichia coli [5] and with Staphylococcus aureus [6] was above 32 µg/mL in each case.
As to `CCCCCCCCO[C@@H]1[C@@H](N)[C@H](O)[C@H](O[C@H]2[C@H](O)[C@@H](O[C@@H]3O[C@@H](CN)[C@H](O)[C@@H](O)[C@@H]3N)[C@H](N)C[C@@H]2N)O[C@H]1CO` (single isomer, unassigned), the MIC against Escherichia coli [5] and in the experiment with Staphylococcus aureus [6] was above 32 µg/mL in each case.
`CCCCCCCCO[C@@H]1[C@@H](O[C@H]2O[C@H](CN)[C@@H](O)[C@H](O)[C@H]2N)[C@H](N)C[C@H](N)[C@H]1O[C@H]1O[C@H](CO)[C@@H](O)[C@H](N)[C@H]1O` (stereo in doubt): the minimum inhibitory concentration (MIC) against Escherichia coli [5] and in the experiment on Staphylococcus aureus [6] was above 32 µg/mL in each case.
Turning to `CCCCCCOC[C@@H]1O[C@@H](O[C@@H]2[C@@H](O)[C@H](O[C@@H]3O[C@@H](CN)[C@H](O)[C@@H](O)[C@@H]3N)[C@@H](N)C[C@H]2N)[C@@H](O)[C@H](O)[C@H]1O` (stereo in doubt), the MIC against Escherichia coli [5] and with Staphylococcus aureus [6] was above 32 µg/mL each time.
As to `CCCCCCCCO[C@@H]1[C@@H](O[C@H]2O[C@H](CN)[C@@H](O)[C@H](O)[C@H]2N)[C@H](N)C[C@H](N)[C@H]1O[C@H]1O[C@H](CO)[C@@H](O)[C@H](O)[C@H]1O` (stereo in doubt), the minimal inhibitory concentration (MIC) against Escherichia coli [5] and with Staphylococcus aureus [6] was above 32 µg/mL throughout.
Regarding `CCCCCCCCOC[C@@H]1O[C@@H](O[C@@H]2[C@@H](O)[C@H](O[C@@H]3O[C@@H](CN)[C@H](O)[C@@H](O)[C@@H]3N)[C@@H](N)C[C@H]2N)[C@@H](O)[C@H](O)[C@H]1O` (stereo in doubt), the minimum inhibitory concentration (MIC) against Escherichia coli [5] and against Staphylococcus aureus [6] was above 32 µg/mL throughout.
